{"source": "PubChem BioAssay AID2060909", "about": "(Molecular Pharmacology Branch, DTP, NCI, 2025)", "system": "362531-283-R-J2-PDC complex spheroid viability", "assay": "Anticancer human tumor 362531-283-R-J2-PDC patient-derived colon adenocarcinoma cell line growth inhibition [RAS]", "conditions": "for viability, T/C: stronger effect = lower value", "procedure,_shortened": "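Multi-cell-type spheroids: tumor cells plus HUVEC endothelial cells and mesenchymal stem cells. RAS-pathway inhibitors were combined with targeted agents, each dosed in half-log steps down from clinical Cmax, or from 10 microM when Cmax was unknown.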", "note": "Several values for one entry are separate records, joined by “and”; a condition that tells them apart may be missing. Equal entries are not always repeated.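 Note: spheroids exposed to the agents for 7 days before readout.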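 Throughout, for viability, T/C: luminescence viability as percent of DMSO vehicle control wells.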"}
{"smiles": "CCc1c2c(nc3ccc(O)cc13)-c1cc3c(c(=O)n1C2)COC(=O)[C@]3(O)CC", "note": "+ C#Cc1c(F)ccc2cc(O)cc(-c3ncc4c(N5CC6CCC(C5)N6)nc(OCC56CCCN5CC(F)C6)nc4c3F)c12", "values": [{"measurement": "IC50", "setting": "curve of first compound, second compound 0.0316 µM", "result": 42.2, "unit": "nM"}, {"measurement": "IC50", "setting": "curve of first compound, second compound 0.1 µM", "result": 22.4, "unit": "nM"}, {"measurement": "IC50", "setting": "curve of first compound, second compound 0.316 µM", "result": 16.6, "unit": "nM"}, {"measurement": "IC50", "setting": "curve of first compound, second compound 1 µM", "result": 11.4, "unit": "nM"}, {"measurement": "IC50", "setting": "curve of first compound, second compound 3.16 µM", "result": 2.45, "unit": "nM"}, {"measurement": "IC50", "setting": "curve of first compound, second compound 10 µM", "result": "< 0.949", "unit": "nM"}, {"measurement": "viability, T/C", "setting": "second compound 0.0316 µM, first compound 0.000949 µM", "result": 95.2, "unit": "%"}, {"measurement": "viability, T/C", "setting": "second compound 0.0316 µM, first compound 0.003 µM", "result": 91.8, "unit": "%"}, {"measurement": "viability, T/C", "setting": "second compound 0.0316 µM, first compound 0.00949 µM", "result": 71.5, "unit": "%"}, {"measurement": "viability, T/C", "setting": "second compound 0.0316 µM, first compound 0.03 µM", "result": 60.6, "unit": "%"}, {"measurement": "viability, T/C", "setting": "second compound 0.0316 µM, first compound 0.0949 µM", "result": 32.3, "unit": "%"}, {"measurement": "viability, T/C", "setting": "second compound 0.0316 µM, first compound 0.3 µM", "result": 18, "unit": "%"}, {"measurement": "viability, T/C", "setting": "second compound 0.1 µM, first compound 0.000949 µM", "result": 92.7, "unit": "%"}, {"measurement": "viability, T/C", "setting": "second compound 0.1 µM, first compound 0.003 µM", "result": 85.8, "unit": "%"}, {"measurement": "viability, T/C", "setting": "second compound 0.1 µM, first compound 0.00949 µM", "result": 64.3, "unit": "%"}, {"measurement": "viability, T/C", "setting": "second compound 0.1 µM, first compound 0.03 µM", "result": 47.2, "unit": "%"}, {"measurement": "viability, T/C", "setting": "second compound 0.1 µM, first compound 0.0949 µM", "result": 25.3, "unit": "%"}, {"measurement": "viability, T/C", "setting": "second compound 0.1 µM, first compound 0.3 µM", "result": 21.2, "unit": "%"}, {"measurement": "viability, T/C", "setting": "second compound 0.316 µM, first compound 0.000949 µM", "result": 84.9, "unit": "%"}, {"measurement": "viability, T/C", "setting": "second compound 0.316 µM, first compound 0.003 µM", "result": 84.3, "unit": "%"}, {"measurement": "viability, T/C", "setting": "second compound 0.316 µM, first compound 0.00949 µM", "result": 57.7, "unit": "%"}, {"measurement": "viability, T/C", "setting": "second compound 0.316 µM, first compound 0.03 µM", "result": 40.5, "unit": "%"}, {"measurement": "viability, T/C", "setting": "second compound 0.316 µM, first compound 0.0949 µM", "result": 18.2, "unit": "%"}, {"measurement": "viability, T/C", "setting": "second compound 0.316 µM, first compound 0.3 µM", "result": 13.9, "unit": "%"}, {"measurement": "viability, T/C", "setting": "second compound 1 µM, first compound 0.000949 µM", "result": 72.7, "unit": "%"}, {"measurement": "viability, T/C", "setting": "second compound 1 µM, first compound 0.003 µM", "result": 76, "unit": "%"}, {"measurement": "viability, T/C", "setting": "second compound 1 µM, first compound 0.00949 µM", "result": 51.2, "unit": "%"}, {"measurement": "viability, T/C", "setting": "second compound 1 µM, first compound 0.03 µM", "result": 30.2, "unit": "%"}, {"measurement": "viability, T/C", "setting": "second compound 1 µM, first compound 0.0949 µM", "result": 18.5, "unit": "%"}, {"measurement": "viability, T/C", "setting": "second compound 1 µM, first compound 0.3 µM", "result": 12.1, "unit": "%"}, {"measurement": "viability, T/C", "setting": "second compound 3.16 µM, first compound 0.000949 µM", "result": 58.2, "unit": "%"}, {"measurement": "viability, T/C", "setting": "second compound 3.16 µM, first compound 0.003 µM", "result": 50.5, "unit": "%"}, {"measurement": "viability, T/C", "setting": "second compound 3.16 µM, first compound 0.00949 µM", "result": 29, "unit": "%"}, {"measurement": "viability, T/C", "setting": "second compound 3.16 µM, first compound 0.03 µM", "result": 19.8, "unit": "%"}, {"measurement": "viability, T/C", "setting": "second compound 3.16 µM, first compound 0.0949 µM", "result": 16.1, "unit": "%"}, {"measurement": "viability, T/C", "setting": "second compound 3.16 µM, first compound 0.3 µM", "result": 7.69, "unit": "%"}, {"measurement": "viability, T/C", "setting": "second compound 10 µM, first compound 0.000949 µM", "result": 39.3, "unit": "%"}, {"measurement": "viability, T/C", "setting": "second compound 10 µM, first compound 0.003 µM", "result": 26.9, "unit": "%"}, {"measurement": "viability, T/C", "setting": "second compound 10 µM, first compound 0.00949 µM", "result": 18.8, "unit": "%"}, {"measurement": "viability, T/C", "setting": "second compound 10 µM, first compound 0.03 µM", "result": 16.2, "unit": "%"}, {"measurement": "viability, T/C", "setting": "second compound 10 µM, first compound 0.0949 µM", "result": 12.3, "unit": "%"}, {"measurement": "viability, T/C", "setting": "second compound 10 µM, first compound 0.3 µM", "result": 8.32, "unit": "%"}]}
{"smiles": "CC1(O)CCCC1n1c(=O)c(C(F)F)cc2cnc(NC3CCN(S(C)(=O)=O)CC3)nc21", "note": "(centres undefined)", "values": [{"measurement": "viability, T/C", "setting": "compound 0.0316 µM", "result": "103% (2×) and 94% and 97.4%"}, {"measurement": "viability, T/C", "setting": "compound 0.1 µM", "result": "104% [middle of 4 runs]"}, {"measurement": "viability, T/C", "setting": "compound 0.316 µM", "result": "89.9% [middle of 4 runs]"}, {"measurement": "viability, T/C", "setting": "compound 3.16 µM", "result": "68.3% [middle of 4 runs]"}, {"measurement": "IC50", "setting": "curve of compound", "result": "> 10000 nM and 9270 nM and 6010 nM"}]}
{"smiles": "NC1c2ccccc2OC12CCN(c1cnc3c(N4CCCc5ncccc54)n[nH]c3n1)CC2", "note": "(centres undefined) + CCn1c(-c2cc(N3CCN(C)CC3)cnc2C(C)OC)c2c3cc(ccc31)-c1csc(n1)CC(NC(=O)C1CC1C)C(=O)N1CCCC(N1)C(=O)OCC(C)(C)C2", "values": [{"measurement": "IC50", "setting": "curve of first compound, second compound 0.000949 µM", "result": 2040, "unit": "nM"}, {"measurement": "IC50", "setting": "curve of first compound, second compound 0.003 µM", "result": 968, "unit": "nM"}, {"measurement": "IC50", "setting": "curve of first compound, second compound 0.00949 µM", "result": 450, "unit": "nM"}, {"measurement": "IC50", "setting": "curve of first compound, second compound 0.03 µM", "result": 152, "unit": "nM"}, {"measurement": "IC50", "setting": "curve of first compound, second compound 0.0949 µM", "result": 40.1, "unit": "nM"}, {"measurement": "IC50", "setting": "curve of first compound, second compound 0.3 µM", "result": "< 31.6", "unit": "nM"}, {"measurement": "viability, T/C", "setting": "second compound 0.000949 µM, first compound 0.0316 µM", "result": 93, "unit": "%"}, {"measurement": "viability, T/C", "setting": "second compound 0.000949 µM, first compound 0.1 µM", "result": 97.3, "unit": "%"}, {"measurement": "viability, T/C", "setting": "second compound 0.000949 µM, first compound 0.316 µM", "result": 88, "unit": "%"}, {"measurement": "viability, T/C", "setting": "second compound 0.000949 µM, first compound 1 µM", "result": 75.2, "unit": "%"}, {"measurement": "viability, T/C", "setting": "second compound 0.000949 µM, first compound 3.16 µM", "result": 34.6, "unit": "%"}, {"measurement": "viability, T/C", "setting": "second compound 0.000949 µM, first compound 10 µM", "result": 15.8, "unit": "%"}, {"measurement": "viability, T/C", "setting": "second compound 0.003 µM, first compound 0.0316 µM", "result": 95.2, "unit": "%"}, {"measurement": "viability, T/C", "setting": "second compound 0.003 µM, first compound 0.1 µM", "result": 90.3, "unit": "%"}, {"measurement": "viability, T/C", "setting": "second compound 0.003 µM, first compound 0.316 µM", "result": 81.8, "unit": "%"}, {"measurement": "viability, T/C", "setting": "second compound 0.003 µM, first compound 1 µM", "result": 50.8, "unit": "%"}, {"measurement": "viability, T/C", "setting": "second compound 0.003 µM, first compound 3.16 µM", "result": 8.91, "unit": "%"}, {"measurement": "viability, T/C", "setting": "second compound 0.003 µM, first compound 10 µM", "result": 4.54, "unit": "%"}, {"measurement": "viability, T/C", "setting": "second compound 0.00949 µM, first compound 0.0316 µM", "result": 91.7, "unit": "%"}, {"measurement": "viability, T/C", "setting": "second compound 0.00949 µM, first compound 0.1 µM", "result": 96.4, "unit": "%"}, {"measurement": "viability, T/C", "setting": "second compound 0.00949 µM, first compound 0.316 µM", "result": 67.1, "unit": "%"}, {"measurement": "viability, T/C", "setting": "second compound 0.00949 µM, first compound 1 µM", "result": 11, "unit": "%"}, {"measurement": "viability, T/C", "setting": "second compound 0.00949 µM, first compound 3.16 µM", "result": 4.02, "unit": "%"}, {"measurement": "viability, T/C", "setting": "second compound 0.00949 µM, first compound 10 µM", "result": 2.36, "unit": "%"}, {"measurement": "viability, T/C", "setting": "second compound 0.03 µM, first compound 0.0316 µM", "result": 94.4, "unit": "%"}, {"measurement": "viability, T/C", "setting": "second compound 0.03 µM, first compound 0.1 µM", "result": 70.9, "unit": "%"}, {"measurement": "viability, T/C", "setting": "second compound 0.03 µM, first compound 0.316 µM", "result": 13, "unit": "%"}, {"measurement": "viability, T/C", "setting": "second compound 0.03 µM, first compound 1 µM", "result": 7.15, "unit": "%"}, {"measurement": "viability, T/C", "setting": "second compound 0.03 µM, first compound 3.16 µM", "result": 5.36, "unit": "%"}, {"measurement": "viability, T/C", "setting": "second compound 0.03 µM, first compound 10 µM", "result": 2.24, "unit": "%"}, {"measurement": "viability, T/C", "setting": "second compound 0.0949 µM, first compound 0.0316 µM", "result": 56.5, "unit": "%"}, {"measurement": "viability, T/C", "setting": "second compound 0.0949 µM, first compound 0.1 µM", "result": 25.1, "unit": "%"}, {"measurement": "viability, T/C", "setting": "second compound 0.0949 µM, first compound 0.316 µM", "result": 6.77, "unit": "%"}, {"measurement": "viability, T/C", "setting": "second compound 0.0949 µM, first compound 1 µM", "result": 4.69, "unit": "%"}, {"measurement": "viability, T/C", "setting": "second compound 0.0949 µM, first compound 3.16 µM", "result": 4.6, "unit": "%"}, {"measurement": "viability, T/C", "setting": "second compound 0.0949 µM, first compound 10 µM", "result": 2.33, "unit": "%"}, {"measurement": "viability, T/C", "setting": "second compound 0.3 µM, first compound 0.0316 µM", "result": 16.5, "unit": "%"}, {"measurement": "viability, T/C", "setting": "second compound 0.3 µM, first compound 0.1 µM", "result": 9.81, "unit": "%"}, {"measurement": "viability, T/C", "setting": "second compound 0.3 µM, first compound 0.316 µM", "result": 5.67, "unit": "%"}, {"measurement": "viability, T/C", "setting": "second compound 0.3 µM, first compound 1 µM", "result": 4.89, "unit": "%"}, {"measurement": "viability, T/C", "setting": "second compound 0.3 µM, first compound 3.16 µM", "result": 4.53, "unit": "%"}, {"measurement": "viability, T/C", "setting": "second compound 0.3 µM, first compound 10 µM", "result": 2.17, "unit": "%"}]}
